SMILES strings stand for the structures.

By melting point is commonly meant the temperature of the solid-liquid transition.

With `CCc1nc(-c2cccc(C(=O)O)c2)c(-c2ccnc(N)c2)s1` [H 77, 3 [5 (2 amino-4 pyridyl)-2 ethyl-1,3 thiazol-4 yl]benzoic acid], the melting point was 273 to 274 °C. The figure for `CCc1nc(-c2cccc(C(=O)OC)c2)c(-c2ccnc(N)c2)s1` [H 78, methyl 3 [5 (2 amino-4 pyridyl)-2 ethyl-1,3 thiazol-4-yl]benzoate] is 173 to 174 °C; for `CCc1nc(-c2ccccc2)c(-c2ccnc(NC(=O)OC(C)(C)C)c2)s1` [H 79-1, 5 [2 (tert-butoxycarbonylamino)-4 pyridyl]-2 ethyl-4 phenyl-1,3 thiazole] it is 154 to 155 °C. In the case of `CC(C)(C)OC(=O)N1CCC(c2nc(-c3cccc(Cl)c3)c(-c3ccnc(N)c3)s2)CC1` [H 80, 4 [2 (1 tert-butoxycarbonylpiperidin-4 yl)-4 (3 chlorophenyl)-1,3 thiazol-5 yl]-2 pyridylamine], the melting point is 143 to 145 °C. The figure for `CCc1nc(-c2ccccc2)c(-c2ccnc(NC(C)=O)c2)s1` [H 82-1, N-[4 (2 ethyl-4 phenyl-1,3-thiazol-5 yl)-2 pyridyl]acetamide] is 175 to 176 °C; for `CCc1nc(-c2ccc(F)cc2)c(-c2ccnc(NC(C)=O)c2)s1` [H 82-2, N-[4 [2 ethyl-4 (4-fluorophenyl)-1,3 thiazol-5 yl]-2 pyridyl]acetamide] it is 190 to 191 °C; for `CCc1nc(-c2cccc(C(F)(F)F)c2)c(-c2ccnc(NC(C)=O)c2)s1` [H 82-3, N-[4 [2 ethyl-4 (3-trifluoromethylphenyl)-1,3 thiazol-5 yl]-2 pyridyl]acetamide] it is 146 to 147 °C.

In turn, `CCc1nc(-c2ccc(F)c(C)c2)c(-c2ccnc(NC(C)=O)c2)s1` [H 82-4, N-[4 [2 ethyl-4 (4 fluoro-3 methylphenyl)-1,3 thiazol-5 yl]-2 pyridyl]acetamide] returned a melting point of 142 to 143 °C.

`CCc1nc(-c2cccc(F)c2)c(-c2ccnc(NC(C)=O)c2)s1` [H 82-5, N-[4 [2 ethyl-4 (3-fluorophenyl)-1,3 thiazol-5 yl]-2 pyridyl]acetamide] showed a melting point of 141 to 142 °C. In the case of `CCc1nc(-c2ccc(Cl)cc2)c(-c2ccnc(NC(C)=O)c2)s1` [H 82-6, N-[4 [4 (4 chlorophenyl)-2-ethyl-1,3 thiazol-5 yl]-2 pyridyl]acetamide] it was 190 to 191 °C; in that of `CCc1cccc(-c2nc(CC)sc2-c2ccnc(NC(C)=O)c2)c1` [H 82-7, N-[4 [2 ethyl-4 (3-ethylphenyl)-1,3 thiazol-5 yl]-2 pyridyl]acetamide], 112 to 113 °C. Take `CCc1nc(-c2cccc(C(C)C)c2)c(-c2ccnc(NC(C)=O)c2)s1` [H 82-8, N-[4 [2 ethyl-4 [3 (1-methylethyl)phenyl]-1,3 thiazol-5 yl]-2 pyridyl]acetamide]: the melting point lay within 116 to 117 °C. In the case of `CCCc1cccc(-c2nc(CC)sc2-c2ccnc(NC(C)=O)c2)c1` [H 82-9, N-[4 [2 ethyl-4 (3-propylphenyl)-1,3 thiazol-5 yl]-2 pyridyl]acetamide] it was 121 to 122 °C. In the case of `CC(=O)Nc1cc(-c2sc(C)nc2-c2cccc(C)c2)ccn1` [H 82-10, N-[4 [2 methyl-4 (3-methylphenyl)-1,3 thiazol-5 yl]-2 pyridyl]acetamide] it was 162 to 163 °C; in that of `CC(=O)Nc1cc(-c2scnc2-c2cccc(C)c2)ccn1` [H 82-11, N-[4 [4 (3 methylphenyl)-1,3 thiazol-5 yl]-2 pyridyl]acetamide], 149 to 150 °C. In the case of `CSc1ccc(-c2nc(-c3cccc(C)c3)c(-c3ccnc(NC(C)=O)c3)s2)cc1` [H 82-12, N-[4 [4 (3 methylphenyl)-2 [4 (methylthio)phenyl]-1,3 thiazol-5 yl]-2 pyridyl]acetamide] it was 181 to 182 °C; in that of `CCC(=O)Nc1cc(-c2sc(CC)nc2-c2ccccc2)ccn1` [H 84-1, N-[4 (2 ethyl-4 phenyl-1,3-thiazol-5 yl)-2 pyridyl]propionamide], 139 to 140 °C; in that of `CCC(=O)Nc1cc(-c2sc(CC)nc2-c2ccc(F)cc2)ccn1` [H 84-2, N-[4 [2 ethyl-4 (4-fluorophenyl)-1,3 thiazol-5 yl]-2 pyridyl]propionamide], 156 to 157 °C. As to `CCC(=O)Nc1cc(-c2sc(CC)nc2-c2cccc(C(F)(F)F)c2)ccn1` [H 84-3, N-[4 [2 ethyl-4 (3-trifluoromethylphenyl)-1,3 thiazol-5 yl]-2 pyridyl]propionamide], the melting point lay within 126 to 127 °C. In the case of `CCC(=O)Nc1cc(-c2sc(CC)nc2-c2ccc(F)c(C)c2)ccn1` [H 84-4, N-[4 [2 ethyl-4 (4 fluoro-3 methylphenyl)-1,3 thiazol-5 yl]-2 pyridyl]propionamide], the melting point fell in the range of 105 to 107 °C.

`CCC(=O)Nc1cc(-c2sc(CC)nc2-c2cccc(F)c2)ccn1` [H 84-5, N-[4 [2 ethyl-4 (3-fluorophenyl)-1,3 thiazol-5 yl]-2 pyridyl]propionamide] yielded a melting point of 121 to 122 °C. On to `CCC(=O)Nc1cc(-c2sc(CC)nc2-c2ccc(Cl)cc2)ccn1` [H 84-6, N-[4 [4 (4 chlorophenyl)-2-ethyl-1,3 thiazol-5 yl]-2 pyridyl]propionamide], for which the melting point lay in the range of 152 to 153 °C. Take `CCC(=O)Nc1cc(-c2sc(CC)nc2-c2cccc(C(C)C)c2)ccn1` [H 84-7, N-[4 [2 ethyl-4 [3 (1-methylethyl)phenyl]-1,3 thiazol-5 yl]-2 pyridyl]propionamide]: the melting point was in the range of 93 to 94 °C. The figure for `CCCc1cccc(-c2nc(CC)sc2-c2ccnc(NC(=O)CC)c2)c1` [H 84-8, N-[4 [2 ethyl-4 (3-propylphenyl)-1,3 thiazol-5 yl]-2 pyridyl]propionamide] is 124 to 125 °C; for `CCCC(=O)Nc1cc(-c2sc(CC)nc2-c2cccc(Cl)c2)ccn1` [H 86, N-[4 [4 (3 chlorophenyl)-2-ethyl-1,3 thiazol-5 yl]-2 pyridyl]butyramide] it is 119 to 120 °C. On to `CCCCC(=O)Nc1cc(-c2sc(CC)nc2-c2cccc(C)c2)ccn1` [H 87-1, N-[4 [2 ethyl-4 (3-methylphenyl)-1,3 thiazol-5 yl]-2 pyridyl]valeramide], for which the melting point lay in the range of 81 to 82 °C.

`CCCCCC(=O)Nc1cc(-c2sc(CC)nc2-c2cccc(C)c2)ccn1` [H 87-2, N-[4 [2 ethyl-4 (3-methylphenyl)-1,3 thiazol-5 yl]-2 pyridyl]hexanamide]: the melting point was in the range of 84 to 85 °C. The figure for `CCCCC(=O)Nc1cc(-c2sc(CC)nc2-c2cccc(Cl)c2)ccn1` [H 88-1, N-[4 [4 (3 chlorophenyl)-2-ethyl-1,3 thiazol-5 yl]-2 pyridyl]valeramide] is 109 to 110 °C. Compound `CCCCCC(=O)Nc1cc(-c2sc(CC)nc2-c2cccc(Cl)c2)ccn1` [H 88-2, N-[4 [4 (3 chlorophenyl)-2-ethyl-1,3 thiazol-5 yl]-2 pyridyl]hexanamide] returned a melting point of 114 to 115 °C. `CCc1nc(-c2cccc(C)c2)c(-c2ccnc(NC(=O)CC3CCCC3)c2)s1` [H 89, N-[4 [2 ethyl-4 (3-methylphenyl)-1,3 thiazol-5 yl]-2 pyridyl]cyclopentylacetamide] returned a melting point of 85 to 86 °C.

As to `CCc1nc(-c2cccc(Cl)c2)c(-c2ccnc(NC(=O)CC3CCCC3)c2)s1` [H 90-1, N-[4 [4 (3 chlorophenyl)-2-ethyl-1,3 thiazol-5 yl]-2 pyridyl]cyclopentylacetamide], the melting point was 121 to 122 °C.

On to `CCc1nc(-c2ccc(Cl)cc2)c(-c2ccnc(NC(=O)CC3CCCC3)c2)s1` [H 90-2, N-[4 [4 (4 chlorophenyl)-2-ethyl-1,3 thiazol-5 yl]-2 pyridyl]cyclopentylacetamide], for which the melting point lay within 149 to 150 °C. In the case of `CC(=O)Nc1cc(-c2sc(C3CCN(C(C)=O)CC3)nc2-c2cccc(Cl)c2)ccn1` [H 93, N-[4 [2 (1 acetylpiperidin-4 yl)-4 (3 chlorophenyl)-1,3-thiazol-5 yl]-2 pyridyl]acetamide] it was 160 to 161 °C. In the case of `CCC(=O)Nc1cc(-c2sc(C3CCN(C(C)=O)CC3)nc2-c2cccc(Cl)c2)ccn1` [H 94, N-[4 [2 (1 acetylpiperidin-4-yl)-4 (3 chlorophenyl)-1,3 thiazol-5 yl]-2-pyridyl]propionamide] it was 174 to 175 °C. For the compound `CC(=O)Nc1cc(-c2sc(-c3ccc(S(C)(=O)=O)cc3)nc2-c2cccc(C)c2)ccn1` [H 98-1, N-[4 [4 (3 methylphenyl)-2-(4 methylsulfonylphenyl)-1,3 thiazol-5 yl]-2 pyridyl]acetamide], the melting point fell in the range of 222 to 223 °C. `CCC(=O)Nc1cc(-c2sc(-c3ccc(S(C)(=O)=O)cc3)nc2-c2cccc(C)c2)ccn1` [H 98-2, N-[4 [4 (3 methylphenyl)-2-(4 methylsulfonylphenyl)-1,3 thiazol-5 yl]-2 pyridyl]propionamide] showed a melting point of 238 to 239 °C. In the case of `CSCCc1nc(-c2cccc(C)c2)c(-c2ccnc(N)c2)s1` [H 99-1, 4 [4 (3 methylphenyl)-2 [2-(methylthio)ethyl]-1,3 thiazol-5 yl]-2 pyridylamine] it was 98 to 99 °C; in that of `Cc1cccc(-c2nc(C(C)OC(=O)c3ccccc3)sc2-c2ccnc(N)c2)c1` (centres unmarked) [H 99-2, 1 [5 (2 amino-4 pyridyl)-4-(3 methylphenyl)-1,3 thiazol-2 yl]ethyl benzoate], 89 to 91 °C. Consider `CSCCc1nc(-c2cccc(Cl)c2)c(-c2ccnc(N)c2)s1` [H 100-1, 4 [4 (3 chlorophenyl)-2-[2 (methylthio)ethyl]-1,3 thiazol-5 yl]-2 pyridylamine], for which the melting point fell in the range of 96 to 97 °C. In the case of `CSCc1nc(-c2cccc(Cl)c2)c(-c2ccnc(N)c2)s1` [H 101-1, 4 [4 (3 chlorophenyl)-2-(methylthio)methyl-1,3 thiazol-5 yl]-2 pyridylamine] it was 111 to 112 °C. The figure for `CC(F)(F)c1nc(-c2cccc(Cl)c2)c(-c2ccnc(N)c2)s1` [H 101-2, 4 [4 (3 chlorophenyl)-2-(1,1 difluoroethyl)-1,3 thiazol-5 yl]-2 pyridylamine] is 131 to 132 °C.

For the origin of these results see patent publication US20050080113A1, “Medicinal compositions” (priority 2001, published 2005).
